In patent US20180314077A1, “DRUG SUSTAINED-RELEASING MEDICAL CONTACT LENS” (NOF CORPORATION, priority 2015, published 2018) one finds Solubility in water data, which are given here for 32 compounds.

The text on this data set:
The solubility of the drug (Q) to be used in the drug sustained-releasing medical contact lens of the present invention in water may be calculated by using the following equation.

Structures can show the parent of a compound that is named as a salt. Where two headings read alike, the source gives them in different places.

Regarding `COc1ccc(/C=C/C(=O)Nc2ccccc2C(=O)O)cc1OC` [tranilast], the Solubility in water was 0.01%.

For the compound `COc1ccc2c(c1)c(CC(=O)O)c(C)n2C(=O)c1ccc(Cl)cc1` [indomethacin], the Solubility in water was determined as 0.00009%.

`CC(C)OC(=O)CCC/C=C\C[C@@H]1[C@@H](/C=C/C(F)(F)COc2ccccc2)[C@H](O)C[C@@H]1O` [tafluprost] showed a Solubility in water of 0.01%.

In turn, `CC(C)c1ccc2oc3nc(N)c(C(=O)O)cc3c(=O)c2c1` [amlexanox] registered a Solubility in water (water at 25° C., 0.01 g of drug / mass of water needed for dissolving x100) of 0.01%.

`Nc1nc2c(ncn2COCCO)c(=O)[nH]1` [acyclovir] came in with a Solubility in water of 0.16%.

Regarding `CC(C)OC(=O)CCC/C=C\C[C@@H]1[C@@H](CC[C@@H](O)CCc2ccccc2)[C@H](O)C[C@@H]1O` [latanoprost], the Solubility in water is recorded as 0.01%.

With `NC1CCN(c2nc3c(cc2F)c(=O)c(C(=O)O)cn3-c2ccc(F)cc2F)C1` (centres unmarked) [tosufloxacin tosilate hydrate], the Solubility in water is 0.01%.

As to `CCn1cc(C(=O)O)c(=O)c2cc(F)c(N3CCNC(C)C3)c(F)c21` (centres unmarked) [lomefloxacin hydrochloride], the Solubility in water was 0.55%.

`C[C@@H]1C[C@H]2[C@@H]3CCC4=CC(=O)C=C[C@]4(C)[C@@]3(F)[C@@H](O)C[C@]2(C)[C@@]1(O)C(=O)CO` [dexamethasone] registered a Solubility in water of 0.01%.

Take `CN1CCC(=C2c3ccccc3CC(=O)c3sccc32)CC1` [ketotifen fumarate]: the Solubility in water was 0.55%.

The compound `CCCCCCCC(=O)CC[C@@H]1[C@@H](C/C=C\CCCC(=O)OC(C)C)[C@@H](O)C[C@H]1O` [isopropyl unoprostone] returned a Solubility in water of 0.01%.

With `C[C@@H]1CN([C@H]2CC[C@](C#N)(c3ccc(F)cc3)CC2)CC[C@]1(C(=O)O)c1ccccc1` [levocabastine hydrochloride], the Solubility in water came out at 0.01%.

`O=C(NC(Cc1cc(=O)[nH]c2ccccc12)C(=O)O)c1ccc(Cl)cc1` (centres unmarked) [rebamipide] returned a Solubility in water of 0.01%.

`CO/N=C(\C(=O)N[C@@H]1C(=O)N2C(C(=O)O)=C(CSc3nnnn3C)CS[C@H]12)c1csc(N)n1` [cefmenoxime]: the Solubility in water was determined as 0.055%.

With `CC(=O)[C@@]1(O)CC[C@H]2[C@@H]3C[C@H](C)C4=CC(=O)C=C[C@]4(C)[C@@]3(F)[C@@H](O)C[C@@]21C` [fluorometholone], the Solubility in water was 0.003%.

As for cyanocobalamin, the Solubility in water is on record as 2.15%.

As to `CCNC(=O)CCC/C=C\C[C@@H]1[C@@H](/C=C/[C@@H](O)CCc2ccccc2)[C@H](O)C[C@@H]1O` [bimatoprost], the Solubility in water turned out to be 0.55%.

Compound `CCN[C@H]1CN(CCCOC)S(=O)(=O)c2sc(S(N)(=O)=O)cc21` [brinzolamide] gave a Solubility in water of 0.055%.

As for `NC(=O)Cc1cccc(C(=O)c2ccccc2)c1N` [nepafenac], the Solubility in water is given as 0.01%.

With `CN(C)CC/C=C1/c2ccccc2COc2ccc(CC(=O)O)cc21` [olopatadine hydrochloride], the Solubility in water is given as 2.15%.

`O=C(O)C(=O)Nc1cccc(-c2nnn[nH]2)c1` [acitazanolast hydrate]: the Solubility in water is reported as 0.55%.

`CC(=O)OCC(=O)[C@@]1(O)CC[C@H]2[C@@H]3CCC4=CC(=O)CC[C@]4(C)[C@H]3[C@@H](O)C[C@@]21C` [hydrocortisone acetate] displayed a Solubility in water of 0.0014%.

As to `CCCC(=O)N1CCCN(c2nc(N)c3cc(OC)c(OC)cc3n2)CC1` [bunazosin hydrochloride], the Solubility in water amounted to 0.55%.

Take `COc1c(N2CCNC(C)C2)c(F)cc2c(=O)c(C(=O)O)cn(C3CC3)c12` (centres unmarked) [gatifloxacin]: the Solubility in water is 0.55%.

The compound `C[C@@H]1C[C@H]2[C@@H]3CCC4=CC(=O)C=C[C@]4(C)[C@@]3(F)[C@@H](O)C[C@]2(C)[C@@]1(O)C(=O)COC(=O)c1cccc(S(=O)(=O)[O-])c1.[Na+]` [dexamethasone sodium sulfobenzoate] came in with a Solubility in water of 0.55%.

For the compound `CC(C(=O)O)c1ccc2c(c1)Cc1cccnc1O2` (centres unmarked) [pranoprofen], the Solubility in water is on record as 0.01%.

For the compound `CCn1cc(C(=O)O)c(=O)c2cc(F)c(N3CCNCC3)cc21` [norfloxacin], the Solubility in water came out at 0.01%.

Regarding `O=C(O)c1cc(O)c2c3nc4ccccc4oc-3cc(=O)c2n1` [pirenoxine], the Solubility in water was 0.01%.

Regarding `O=C(O)Cc1ccccc1Nc1c(Cl)cccc1Cl` [diclofenac sodium], the Solubility in water is recorded as 0.24%.

In turn, sodium hyaluronate registered a Solubility in water of 2.15%.

The compound `CC(C)OC(=O)CCC/C=C\C[C@@H]1[C@@H](/C=C/[C@@H](O)COc2cccc(C(F)(F)F)c2)[C@H](O)C[C@@H]1O` [travoprost] came in with a Solubility in water of 0.01%.

sodium azulene sulfonate hydrate: the Solubility in water turned out to be 2.15%.
